Where a chain is given by its changes, count along the chain named.
Assays:
Assay type in all cases: binding
GLUT9 [1] = target: T1, GLUT9 (Homo sapiens, UniProt Q9NRM0, N458A); test: MST with purified protein
T1 construct: gene SLC2A9; full length human SLC2A9, N-terminal twin strep and FLAG tag
T1 sequence (Q9NRM0 1-540 N458A): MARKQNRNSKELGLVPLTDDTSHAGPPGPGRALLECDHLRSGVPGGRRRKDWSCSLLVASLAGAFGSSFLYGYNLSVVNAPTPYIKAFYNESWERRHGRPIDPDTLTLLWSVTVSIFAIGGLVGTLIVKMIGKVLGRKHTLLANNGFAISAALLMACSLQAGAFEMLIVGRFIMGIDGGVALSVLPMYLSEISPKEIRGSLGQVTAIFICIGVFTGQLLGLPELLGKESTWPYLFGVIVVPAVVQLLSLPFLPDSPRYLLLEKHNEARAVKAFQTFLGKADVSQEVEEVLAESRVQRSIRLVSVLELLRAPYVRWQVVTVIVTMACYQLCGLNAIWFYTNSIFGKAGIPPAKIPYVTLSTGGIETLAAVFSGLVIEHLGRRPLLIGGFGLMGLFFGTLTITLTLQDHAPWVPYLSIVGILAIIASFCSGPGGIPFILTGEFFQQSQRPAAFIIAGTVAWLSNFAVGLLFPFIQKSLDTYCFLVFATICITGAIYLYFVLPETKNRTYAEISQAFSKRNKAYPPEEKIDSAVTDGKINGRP

GLUT9 [2] = target: T2, GLUT9 (Homo sapiens, UniProt Q9NRM0); test: cryo-EM structure ([…] Å), MST Kd; patch clamp IC50 […]
T2 construct: gene SLC2A9; full length human SLC2A9, N-terminal twin strep and FLAG tag
T2 sequence (Q9NRM0 1-540): T1 sequence (Q9NRM0 1-540 N458A) with A458N

GLUT9 [3] = target: T3, GLUT9 (Homo sapiens, UniProt Q9NRM0, Y327A); test: MST with purified protein
T3 construct: gene SLC2A9; full length human SLC2A9, N-terminal twin strep and FLAG tag
T3 sequence (Q9NRM0 1-540 Y327A): T1 sequence (Q9NRM0 1-540 N458A) with Y327A, A458N

GLUT9 [4] = target: T4, GLUT9 (Homo sapiens, UniProt Q9NRM0, W336A); test: MST with purified protein
T4 construct: gene SLC2A9; full length human SLC2A9, N-terminal twin strep and FLAG tag
T4 sequence (Q9NRM0 1-540 W336A): T1 sequence (Q9NRM0 1-540 N458A) with W336A, A458N

GLUT9 [5] = target: T5, GLUT9 (Homo sapiens, UniProt Q9NRM0, C427A); test: MST with purified protein
T5 construct: gene SLC2A9; full length human SLC2A9, N-terminal twin strep and FLAG tag
T5 sequence (Q9NRM0 1-540 C427A): T1 sequence (Q9NRM0 1-540 N458A) with C427A, A458N

GLUT9 [6] = target: T6, GLUT9 (Homo sapiens, UniProt Q9NRM0, Y327Q); test: MST with purified protein
T6 construct: gene SLC2A9; full length human SLC2A9, N-terminal twin strep and FLAG tag
T6 sequence (Q9NRM0 1-540 Y327Q): T1 sequence (Q9NRM0 1-540 N458A) with Y327Q, A458N

GLUT9 [7] = target: T7, GLUT9 (Homo sapiens, UniProt Q9NRM0, N333A); test: MST with purified protein
T7 construct: gene SLC2A9; full length human SLC2A9, N-terminal twin strep and FLAG tag
T7 sequence (Q9NRM0 1-540 N333A): T1 sequence (Q9NRM0 1-540 N458A) with N333A, A458N

GLUT9 [8] = target: T8, GLUT9 (Homo sapiens, UniProt Q9NRM0, E364A); test: MST with purified protein
T8 construct: gene SLC2A9; full length human SLC2A9, N-terminal twin strep and FLAG tag
T8 sequence (Q9NRM0 1-540 E364A): T1 sequence (Q9NRM0 1-540 N458A) with E364A, A458N

GLUT9 [9] = target: T9, GLUT9 (Homo sapiens, UniProt Q9NRM0, W336F); test: MST with purified protein
T9 construct: gene SLC2A9; full length human SLC2A9, N-terminal twin strep and FLAG tag
T9 sequence (Q9NRM0 1-540 W336F): T1 sequence (Q9NRM0 1-540 N458A) with W336F, A458N

GLUT9 [10] = target: T2, GLUT9; test: cryo-EM structure ([…] Å), MST Kd; patch clamp transport current

Row | SMILES | Kd (GLUT9 [1]) [µM] | Kd (GLUT9 [2]) [µM] | Kd (GLUT9 [3]) [µM] | Kd (GLUT9 [4]) [µM] | Kd (GLUT9 [5]) [µM] | Kd (GLUT9 [6]) [µM] | Kd (GLUT9 [7]) [µM] | Kd (GLUT9 [8]) [µM] | Kd (GLUT9 [9]) [µM] | Kd (GLUT9 [10]) [µM]
1 | O=c1cc(-c2ccc(O)cc2)oc2cc(O)cc(O)c12 [API, apigenin] | 4.1 ± 1.1 | 0.5 ± 0.1 | 2.2 ± 0.7 | 1.3 ± 0.3 | 1 ± 0.2 |  |  |  |  | 
2 | O=c1[nH]c(=O)c2[nH]c(=O)[nH]c2[nH]1 [UA, urate] |  |  |  |  |  | 867 ± 168 | 472 ± 52.2 | 681 ± 126 | 361 ± 80.3 | 231 ± 17.1

Reference: publication PMC11169512, “Structural basis for urate recognition and apigenin inhibition of human GLUT9” (Nature Communications, 2024)
